Series [1] deals with muscarinic M2 receptor (Homo sapiens (Human), UniProt P08172). The series is described as follows: Muscarinic M2 receptor binding assay (assay 1). Conditions: [3H]AF-DX 384 2 nM, Cheng Prusoff. The procedure, abridged: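 Membrane homogenates (60 μg protein) were incubated with 2 nM [3H]AF-DX 384 for 60 min at 22° C in Tris-HCl pH 7.4 with NaCl, KCl, MgCl2 and EDTA; 1 μM atropine defined nonspecific binding. Filtration and scintillation counting gave percent inhibition of specific binding, with Ki by Cheng-Prusoff.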
Sequence of muscarinic M2 receptor (P08172 whole entry): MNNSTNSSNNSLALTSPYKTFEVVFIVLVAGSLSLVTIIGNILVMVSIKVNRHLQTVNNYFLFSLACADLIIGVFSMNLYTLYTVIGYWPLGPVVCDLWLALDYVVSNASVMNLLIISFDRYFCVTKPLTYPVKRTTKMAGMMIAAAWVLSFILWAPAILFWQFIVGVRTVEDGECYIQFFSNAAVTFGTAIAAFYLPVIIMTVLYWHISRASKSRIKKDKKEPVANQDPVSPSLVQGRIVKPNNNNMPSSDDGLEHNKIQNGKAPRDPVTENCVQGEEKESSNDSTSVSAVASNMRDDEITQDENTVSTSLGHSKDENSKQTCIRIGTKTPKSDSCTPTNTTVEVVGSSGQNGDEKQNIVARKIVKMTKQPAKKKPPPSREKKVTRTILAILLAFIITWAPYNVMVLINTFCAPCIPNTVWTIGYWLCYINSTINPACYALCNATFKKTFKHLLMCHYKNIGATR

Series [2] can be described thus: Human hepatocyte intrinsic clearance assay. Conditions: human hepatocytes. It is filed as in vitro ADME. The procedure, abridged:
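Pooled 10-donor cryopreserved human hepatocytes in suspension (0.25×10^6 cells in 0.25 mL) incubated with test compound at […], 37° C. Samples taken 0.5–120 min and quenched in acetonitrile, parent remaining measured by LC-MS/MS. CLint ([…]) derived from slope of ln % remaining vs time.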

Series [3] relates to HEL cells. The series is described as follows: Proliferation assay, HEL control cell line (CellTiter-Glo, 7 days). It is filed as cell-based, human. The method in brief: (§1)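 Cells were seeded at line-specific low densities for linear growth, exposed to 3.16-fold serial compound dilutions at 0.1% DMSO, and incubated 7 days at 37 °C, 5% CO2. Viability was read by CellTiter-Glo 2.0 luminescence; IC50 came from one-site fits of % inhibition, normalized between DMSO-treated cells (100%) and a day-0 plate (0%).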
(Cellular ATP, detected with luciferase, serves as a proxy for viable cell number.)

For series [4], the system named is OCI-AML3 cells. The series is described as follows: Proliferation assay, OCI-AML3 (CellTiter-Glo, 7 days). The format is cell-based, human. The procedure, abridged:
as §1

The text below walks through data of patent US20240335431A1, “1-H-PYRROLO[2,3-c]PYRIDINE COMPOUNDS” (Acerta Pharma B.V., priority 2023, published 2024).

Where two headings read alike, the source gives them in different places. Where only a bound is given, the exact number is not on record here.

Regarding `CCN(C(=O)c1cc(F)ccc1-n1c(C)c(C(=O)C2CCN(C(=O)[C@H]3NC[C@@H]4C[C@@H]43)CC2)c2ccncc21)C(C)C` [Example 47, 2-(3-(1-((1S,2S,5R)-3-Azabicyclo[3.1.0]hexane-2-carbonyl)piperidine-4-carbonyl)-2-methyl-1H-pyrrolo[2,3-c]pyridin-1-yl)-N-ethyl-5-fluoro-N-isopropylbenzamide], the inhibition constant (Ki) (usually a measure of affinity in units of concentration, obtained from inhibition or displacement) in series [1] stood at 7300 nM. The “HH CLint” value in series [2] turned out to be 2.1 μl/min/1E6. Further, the half-inhibitory concentration (IC50) (in general, the concentration at which inhibition is half-maximal) is more than 10000 nM in series [3] (Homo sapiens, HEL, 168 h) and 26 nM in series [4] (Homo sapiens, OCI-AML-3, 168 h).
Molecule `CCN(C(=O)c1cc(F)ccc1-n1c(C)c(C(=O)C2CCN(C(=O)[C@H]3NC[C@@H]4C[C@@H]43)CC2)c2ccncc21)C(C)C` (single isomer, unassigned) [Example 48-2] had a Ki in series [1] of 19000 nM. In series [2], the “HH CLint” value is listed as less than 1.0 μl/min/1E6. The IC50 is more than 10000 nM in series [3] and 23 nM in series [4].
Turning to `CC(C)c1cnccc1-c1cc(F)ccc1-n1cc(C(=O)C2CN(C(=O)[C@H]3N[C@@H]4CC[C@H]3C4)C2)c2ccncc21.O=CO` [Example 11, (1-((1R,3S,4S)-2-Azabicyclo[2.2.1]heptane-3-carbonyl)azetidin-3-yl)(1-(4-fluoro-2-(3-isopropylpyridin-4-yl)phenyl)-1H-pyrrolo[2,3-c]pyridin-3-yl)methanone 1·formic acid], the inhibition constant Ki in series [1] came to 5000 nM. Further, the “HH CLint” value in series [2] is listed as less than 1.0 μl/min/1E6. For the same molecule, the IC50 is more than 10000 nM in series [3] (Homo sapiens, HEL, 168 h) and 51 nM in series [4] (Homo sapiens, OCI-AML-3, 168 h).
The matching figures for `CC(C)N(C(=O)c1cc(F)ccc1-n1cc(C(=O)C2CCN(C(=O)[C@@H]3CCC(C)(C)N3)CC2)c2ccncc21)C(C)C` [Example 27, (S)-2-(3-(1-(5,5-Dimethylpyrrolidine-2-carbonyl)piperidine-4-carbonyl)-1H-pyrrolo[2,3-c]pyridin-1-yl)-5-fluoro-N,N-diisopropylbenzamide]: 1600 nM, less than 1.0 μl/min/1E6, more than 10000 nM and 34 nM.
The matching figures for `CC(C)c1ncsc1-c1cc(F)ccc1-n1cc(C(=O)C2CCN(C(=O)[C@H]3N[C@@H]4CC[C@H]3C4)CC2)c2ccncc21.O=CO` [Example 42, (1-((1R,3S,4S)-2-Azabicyclo[2.2.1]heptane-3-carbonyl)piperidin-4-yl)(1-(4-fluoro-2-(4-isopropylthiazol-5-yl)phenyl)-1H-pyrrolo[2,3-c]pyridin-3-yl)methanone 1·formic acid]: 500 nM, 2.5 μl/min/1E6, more than 10000 nM and 76 nM.
